Article PMC4341838 (Biochemistry, 2015)

Assay: Circular dichroism in POPC liposomes
Format: physicochemical
Conditions: 1:250 peptide:lipid

Sequence: SSLSLLSLSWLSLSLLSLS [SLscr2]
- Conformation by CD in POPC liposomes, in words: β-sheet-like conformation
